# Data: patent US8592407B2, “Pyrrolo[2,1-c][1,4] benzodiazepine derivatives with dithiocarbamate side chains and process for the preparation thereof” (Council of Scientific & Industrial Research, priority 2008, dated 2013)
# Tests used:
# [1] = tested on: Neuroblastoma IMR-32; conditions: human
# [2] = tested on: Colon 502713; conditions: human
# [3] = tested on: Ovary OVCAR-5; conditions: human
# [4] = tested on: Lung A-549; conditions: human
# [5] = tested on: Liver HEP-2; conditions: human
# [6] = tested on: sixty human tumour cell lines; assay: cells; conditions: read-out: GI50 value against sixty cell lines in nine cell panels
# Procedure: For each compound, dose response curves for each cell line were measured at a minimum of five concentrations at 10 fold dilutions. A protocol of 48 h continuous drug exposure was used and a sulforhodamine B (SRB) protein assay was used to estimate cell viability or growth. The concentration causing 50% cell growth inhibition (G150), total cell growth inhibition (TGI 0% growth) and 50% cell death (LC50, −50% growth) compared with the control was calculated.
SMILES,Preliminary in vitro cytotoxicity data [1],Preliminary in vitro cytotoxicity data [2],Preliminary in vitro cytotoxicity data [3],Preliminary in vitro cytotoxicity data [4],Preliminary in vitro cytotoxicity data [5],GI50 [6]
"COc1cc2c(cc1OCCCCN1CCN(C(=S)SCCC(C#N)(c3ccccc3)c3ccccc3)CC1)N=C[C@@H]1CCCN1C2=O [Compound 12c, 3-cyano-3,3-diphenylpropyl 4-(4-[(11aS)-7-(methyloxy)-5-oxo-2,3,5,11a-tetrahydro-1H-benzo[e]pyrrolo[1,2-a][1,4]diazepin-8-yl]oxybutyl)hexahydro-1-pyrazinecarbodithioate]",88,75%,24%,31%,69%,–
"COc1cc2c(cc1OCCCN1CCN(C(=S)SCCC(C#N)(c3ccccc3)c3ccccc3)CC1)N=C[C@@H]1CCCN1C2=O [Compound 12b, 3-cyano-3,3-diphenylpropyl 4-(3-[(11aS)-7-(methyloxy)-5-oxo-2,3,5,11a-tetrahydro-1H-benzo[e]pyrrolo[1,2-a][1,4]diazepin-8-yl]oxypropyl)hexahydro-1-pyrazinecarbodithioate]",–,–,–,–,–,< 2690 nM
